Measurements as given in ChEMBL document CHEMBL1201862, “PubChem BioAssay data set” (2004).
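Assay format: 96-well plates, 48-hour exposure. GI50 is the concentration that inhibits growth by half.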 Calls of active or inactive are those of the source. Rule as the data show it: active = GI50 up to about 1.1 µM and inactive = higher. Non-standard residues stand in square brackets, D forms with d. Residues, ends and D or L forms follow the SMILES beside them. ξ: configuration not given here. *: point of attachment. ξHyp = O=C(O)C1CC(O)CN1; Cbz = O=C(OCc1ccccc1)*

Experiments:
Experiment in all cases: DTP human tumour cell line panel, 48 h
LOX IMVI = test system: LOX IMVI
RXF 393 = test system: RXF 393
CAKI-1 = test system: CAKI-1
EKVX = test system: EKVX
SR = test system: SR
CCRF-CEM = test system: CCRF-CEM
A498 = test system: A498
HT-29 = test system: HT-29
UACC-62 = test system: UACC-62
SK-MEL-2 = test system: SK-MEL-2
RPMI-8226 = test system: RPMI-8226
HCT-116 = test system: HCT-116
A549 = test system: A549
SK-OV-3 = test system: SK-OV-3
K562 = test system: K562
SF-295 = test system: SF-295
UO-31 = test system: UO-31
NCI-H522 = test system: NCI-H522
SNB-75 = test system: SNB-75
COLO 205 = test system: COLO 205

Measured: GI50

CC(=O)Nc1oc(C)nc1C#N
inactive: LOX IMVI > 100 µM | RXF 393 > 100 µM | CAKI-1 > 100 µM | EKVX > 100 µM | SR > 100 µM | CCRF-CEM > 100 µM | A498 > 100 µM | HT-29 > 100 µM | UACC-62 > 100 µM | SK-MEL-2 > 100 µM | RPMI-8226 > 100 µM | HCT-116 > 100 µM | A549 > 100 µM | SK-OV-3 > 100 µM | K562 > 100 µM

CC1=CC2c3cccc4[nH]cc(c34)CC2N(C)C1 (configuration not stated)
inactive: SF-295 53.3 µM | UO-31 11.9 µM | NCI-H522 > 100 µM | LOX IMVI 70.8 µM | RXF 393 > 100 µM | CAKI-1 66.7 µM | EKVX > 100 µM | CCRF-CEM > 91.6 µM | A498 > 76.6 µM | HT-29 49.4 µM | UACC-62 > 91.8 µM | SK-MEL-2 > 100 µM | RPMI-8226 > 100 µM | HCT-116 > 100 µM | A549 > 100 µM | SNB-75 38.5 µM | SK-OV-3 > 100 µM | K562 32.7 µM | COLO 205 55.6 µM

N#CCCC1(CCC#N)CCCCCCC(CCC#N)(CCC#N)C(O)C1O (configuration not stated)
inactive: SF-295 > 100 µM | UO-31 > 100 µM | NCI-H522 > 100 µM | LOX IMVI > 100 µM | RXF 393 > 100 µM | CAKI-1 > 100 µM | SR 65.3 µM | A498 > 100 µM | HT-29 > 100 µM | SK-MEL-2 > 100 µM | HCT-116 > 100 µM | A549 > 100 µM | SNB-75 > 100 µM | SK-OV-3 > 100 µM | K562 > 100 µM | COLO 205 41.9 µM

CCOC(=O)CCc1c(C)c2c(OC(C)=O)cc(OC(C)=O)cc2oc1=O
inactive: SF-295 56.5 µM | UO-31 46.2 µM | NCI-H522 50.4 µM | LOX IMVI > 10 µM | RXF 393 21.4 µM | CAKI-1 > 100 µM | EKVX 58.3 µM | HT-29 35.6 µM | SK-MEL-2 28.4 µM | HCT-116 62.1 µM | A549 47.2 µM | SNB-75 21.7 µM | COLO 205 > 100 µM

CCOC(=O)C(O)(NC(=O)c1ccc(F)cc1)C(F)(F)F (configuration not stated)
inactive: SF-295 > 100 µM | UO-31 > 100 µM | NCI-H522 > 100 µM | LOX IMVI > 100 µM | RXF 393 > 100 µM | CAKI-1 > 100 µM | EKVX > 100 µM | SR > 100 µM | CCRF-CEM > 100 µM | HT-29 > 100 µM | UACC-62 > 100 µM | SK-MEL-2 > 100 µM | RPMI-8226 > 100 µM | HCT-116 > 100 µM | A549 > 100 µM | SNB-75 > 100 µM | SK-OV-3 > 100 µM | K562 > 100 µM | COLO 205 > 100 µM

CC(/C=N/N=C(N)N)=N\N=C(N)N
inactive: SF-295 92.3 µM | UO-31 9.82 µM | NCI-H522 29.7 µM | LOX IMVI 4.18 µM | RXF 393 32.3 µM | EKVX 29.1 µM | SR > 57.3 µM | CCRF-CEM 4.73 µM | A498 253 µM | UACC-62 46.6 µM | SK-MEL-2 12.8 µM | RPMI-8226 12.1 µM | HCT-116 6.41 µM | A549 61.9 µM | SNB-75 25.2 µM | SK-OV-3 43.4 µM | K562 8.73 µM | COLO 205 3.02 µM

C/N=C1\S/C(=N\c2ccc(N(C)C)cc2)N1C
inactive: SF-295 40.4 µM | UO-31 31.6 µM | NCI-H522 25.8 µM | LOX IMVI 46 µM | EKVX 25 µM | SR 46.1 µM | CCRF-CEM 36.1 µM | A498 23 µM | HT-29 28.2 µM | UACC-62 33.5 µM | SK-MEL-2 33.9 µM | RPMI-8226 34.5 µM | HCT-116 32.7 µM | A549 43 µM | SNB-75 19 µM | SK-OV-3 26.8 µM | K562 29.7 µM | COLO 205 39.4 µM

CCN(CC)CCOC(=O)c1ccc(N)cc1.CCOC(=O)Nc1ccc(S(=O)(=O)OC)cc1.CCOC(=O)Nc1ccc(S(=O)(=O)OC)cc1.Nc1ccc(C(=O)O)c(O)c1
inactive: SF-295 > 100 µM | UO-31 > 100 µM | NCI-H522 > 100 µM | LOX IMVI > 100 µM | RXF 393 > 100 µM | CAKI-1 > 100 µM | EKVX > 100 µM | CCRF-CEM > 100 µM | A498 > 100 µM | HT-29 > 100 µM | UACC-62 > 100 µM | SK-MEL-2 > 100 µM | HCT-116 > 100 µM | A549 > 100 µM | SNB-75 40.2 µM | SK-OV-3 > 100 µM | K562 > 100 µM

O=C(O)C1CCCCN1C(=O)c1ccccc1 (configuration not stated)
inactive: SF-295 > 100 µM | UO-31 > 100 µM | LOX IMVI > 100 µM | RXF 393 > 100 µM | EKVX > 100 µM | SR > 100 µM | CCRF-CEM > 100 µM | A498 > 100 µM | HT-29 > 100 µM | UACC-62 > 100 µM | RPMI-8226 > 100 µM | HCT-116 > 100 µM | A549 > 100 µM | SNB-75 > 100 µM | SK-OV-3 > 100 µM | K562 > 100 µM | COLO 205 > 100 µM

CC1=NN(C(=O)c2cc(Cl)cc([N+](=O)[O-])c2)C(=O)C1/N=N/c1ccccc1C(=O)O (configuration not stated)
inactive: SF-295 > 100 µM | UO-31 > 100 µM | NCI-H522 36.6 µM | RXF 393 > 100 µM | CAKI-1 > 100 µM | EKVX > 100 µM | SR > 100 µM | CCRF-CEM > 100 µM | A498 > 100 µM | HT-29 > 100 µM | UACC-62 69.5 µM | SK-MEL-2 > 100 µM | RPMI-8226 > 100 µM | HCT-116 > 100 µM | A549 > 100 µM | SNB-75 75.2 µM | SK-OV-3 > 100 µM | K562 > 100 µM | COLO 205 > 100 µM

COc1cc(C(C)O)c(S(=O)(=O)CC(C)O)nn1 (configuration not stated)
inactive: SF-295 > 100 µM | UO-31 > 100 µM | NCI-H522 > 100 µM | LOX IMVI > 100 µM | RXF 393 85.3 µM | CAKI-1 > 100 µM | EKVX 75.5 µM | SR 43.6 µM | CCRF-CEM > 100 µM | A498 > 100 µM | HT-29 > 100 µM | UACC-62 > 100 µM | RPMI-8226 43.9 µM | HCT-116 > 100 µM | A549 > 100 µM | SK-OV-3 > 100 µM | K562 72.9 µM | COLO 205 > 100 µM

Nc1ncc2c(n1)-c1ccccc1OC2
inactive: SF-295 > 100 µM | UO-31 45.2 µM | NCI-H522 > 100 µM | LOX IMVI > 100 µM | RXF 393 > 69.2 µM | EKVX 94.4 µM | CCRF-CEM > 100 µM | A498 51.2 µM | HT-29 > 100 µM | UACC-62 55.7 µM | SK-MEL-2 > 100 µM | RPMI-8226 > 100 µM | HCT-116 > 100 µM | A549 > 100 µM | SNB-75 22.6 µM | SK-OV-3 > 100 µM | K562 > 100 µM | COLO 205 > 100 µM

NC(=O)CNC(=O)C1CC(O)CN1C(=O)OCc1ccccc1 (configuration not stated) (Cbz-[ξHyp]-Gly-NH2)
inactive: SF-295 > 100 µM | UO-31 > 100 µM | NCI-H522 > 100 µM | LOX IMVI > 100 µM | RXF 393 > 100 µM | EKVX 41.4 µM | SR > 100 µM | CCRF-CEM > 100 µM | A498 > 100 µM | HT-29 > 100 µM | UACC-62 > 100 µM | SK-MEL-2 > 100 µM | RPMI-8226 > 100 µM | HCT-116 > 100 µM | A549 > 100 µM | SNB-75 > 100 µM | SK-OV-3 > 100 µM | K562 > 100 µM | COLO 205 > 100 µM

Cc1[nH]c(=O)[nH]c(=O)c1C(=O)N(CCO)Cc1ccccc1
inactive: SF-295 35.5 µM | UO-31 > 100 µM | NCI-H522 > 100 µM | LOX IMVI > 100 µM | RXF 393 30 µM | EKVX > 100 µM | SR > 100 µM | CCRF-CEM > 100 µM | A498 > 100 µM | HT-29 > 100 µM | UACC-62 > 100 µM | SK-MEL-2 > 100 µM | RPMI-8226 > 100 µM | HCT-116 > 100 µM | SK-OV-3 > 100 µM | K562 > 100 µM | COLO 205 22.3 µM

CC1=C[C@]2(CC(C)C3C(CC4(C)C5CCC6C(C)(C)C(=O)CC[C@@]67C[C@@]57CC[C@]34C)O2)OC1=O (some centres not stated)
inactive: SF-295 25.3 µM | LOX IMVI 3.46 µM | RXF 393 5.11 µM | CAKI-1 16.9 µM | EKVX 44.8 µM | SR 3.82 µM | CCRF-CEM > 100 µM | A498 23.7 µM | HT-29 9.31 µM | SK-MEL-2 34.4 µM | RPMI-8226 9.2 µM | HCT-116 3.33 µM | A549 16.6 µM | SNB-75 16.8 µM | K562 4.03 µM | COLO 205 36.9 µM

COc1cc([C@@H]2c3cc4c(c(O[C@@H]5O[C@H]6CO[C@@H](C)O[C@H]6[C@H](O)[C@@H]5O)c3C[C@H]3COC(=O)[C@@H]32)OCO4)cc(OC)c1O
inactive: SF-295 3.48 µM | UO-31 45.6 µM | NCI-H522 2.54 µM | LOX IMVI 4.73 µM | RXF 393 3.64 µM | EKVX 5.55 µM | CCRF-CEM 11.9 µM | A498 4.11 µM | HT-29 33.7 µM | UACC-62 4.8 µM | SK-MEL-2 27.3 µM | RPMI-8226 47.5 µM | HCT-116 6.78 µM | A549 10.9 µM | SNB-75 5.32 µM | SK-OV-3 19.6 µM | K562 4.53 µM | COLO 205 38.8 µM
